Where two headings read alike, the source gives them in different places.

This experiment has as its system colorectal cancer cell lines (e.g. DLD-1, HCT 116, SW620, HCT-15, HCT-8, RKO). Kind of experiment: Cell based assay, cell viability (CellTiter-Glo), colorectal cancer cell lines. The method, boiled down: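 Viability measured by ATP luminescence following 72 h treatment over a 0–2 μM final concentration range.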
A general note: In ATP-based viability assays light output follows the ATP content of the culture.

The mark [1] stands for this setting: Homo sapiens, DLD-1, 72 hours treatment, read-out: IC50, colorectal cancer cell line DLD-1.
The mark [2] stands for this setting: Homo sapiens, HCT 116, 72 hours treatment, read-out: IC50, colorectal cancer cell line HCT 116.
[3] abbreviates: Homo sapiens, HCT-8, 72 hours treatment, read-out: IC50, colorectal cancer cell line HCT-8.
The mark [4] stands for this setting: Homo sapiens, HCT-15, 72 hours treatment, read-out: IC50, colorectal cancer cell line HCT-15.
Setting [5] is: Homo sapiens, HT-29, 72 hours treatment, read-out: IC50, colorectal cancer cell line HT-29.
The mark [6] stands for this setting: Homo sapiens, LoVo, 72 hours treatment, read-out: IC50, colorectal cancer cell line LoVo.
Setting [7] is: Homo sapiens, SW480, 72 hours treatment, read-out: IC50, colorectal cancer cell line SW480.
[8] abbreviates: Homo sapiens, SW-620, SW620, 72 hours treatment, read-out: IC50, colorectal cancer cell line SW620.
Where [9] appears, read: RKO, 72 hours treatment, read-out: IC50, colorectal cancer cell line RKO.
Where [10] appears, read: Homo sapiens, DLD-1 cells, 72 hours treatment, read-out: IC50, colorectal cancer cell line DLD-1.
The mark [11] stands for this setting: Homo sapiens, HCT 116 cells, 72 hours treatment, read-out: IC50, colorectal cancer cell line HCT 116.
Setting [12] is: Homo sapiens, HCT-8 cells, 72 hours treatment, read-out: IC50, colorectal cancer cell line HCT-8.
[13] abbreviates: Homo sapiens, HCT-15 cells, 72 hours treatment, read-out: IC50, colorectal cancer cell line HCT-15.
[14] abbreviates: Homo sapiens, HT-29 cells, 72 hours treatment, read-out: IC50, colorectal cancer cell line HT-29.
Where [15] appears, read: Homo sapiens, LoVo cells, 72 hours treatment, read-out: IC50, colorectal cancer cell line LoVo.
Where [16] appears, read: Homo sapiens, RKO cells, 72 hours treatment, read-out: IC50, colorectal cancer cell line RKO.
Where [17] appears, read: Homo sapiens, SW480 cells, 72 hours treatment, read-out: IC50, colorectal cancer cell line SW480.
Setting [18] is: Homo sapiens, SW-620, SW620 cells, 72 hours treatment, read-out: IC50, colorectal cancer cell line SW620.

For orientation: IC50 means the point on the concentration scale where inhibition reaches its midpoint. With `CC(=O)c1c([S+](C)[O-])n(C(C)=O)c2c(Br)ccc(Cl)c2c1=O` (stereo not drawn) [Compound 19, 1,1′-(8-bromo-5-chloro-2-(methylsulfinyl)-4-oxoquinoline-1,3(4H)-diyl)bis(ethan-1-one)], the IC50 was over 2000 nM under setting [1]; over 2000 nM under setting [2]; over 2000 nM under setting [3]; over 2000 nM under setting [4]; over 10000 nM under setting [5]; over 2000 nM under setting [6]. Further, the IC50 under setting [7] is over 2000 nM, the IC50 under setting [8] was over 2000 nM and the IC50 under setting [9] is over 2000 nM.
Take `CSc1c(C(C)=O)c(=O)c2c(Cl)ccc(Br)c2n1C(C)=O` [Compound 18, 1,1′-(8-bromo-5-chloro-2-(methylthio)-4-oxoquinoline-1,3(4H)-diyl)bis(ethan-1-one)]: the half-inhibitory concentration (IC50) runs as follows: under setting [1], over 2000 nM; under setting [2], over 2000 nM; under setting [3], over 2000 nM; under setting [4], over 2000 nM; under setting [5], over 10000 nM; under setting [6], over 2000 nM. Moreover, the IC50 under setting [7] was over 2000 nM, the IC50 under setting [8] is over 2000 nM and the IC50 under setting [9] is over 2000 nM.
`CCS(=O)(=O)n1c([S+](C)[O-])c(C(C)=O)c(=O)c2c(Cl)ccc(Br)c21` (stereo not drawn) [Compound 39, 3-acetyl-8-bromo-5-chloro-1-(ethylsulfonyl)-2-(methylsulfinyl)quinolin-4(1H)-one]: the IC50 by setting is: under setting [1], over 2000 nM; under setting [2], over 2000 nM; under setting [3], over 2000 nM; under setting [4], over 2000 nM; under setting [5], over 10000 nM; under setting [6], over 2000 nM. Besides, the IC50 reads like this: under setting [7], over 2000 nM; under setting [8], over 2000 nM; under setting [9], over 2000 nM.
With `CC(=O)c1c(SCc2ccc(Cl)cc2)[nH]c2c(Br)ccc(Cl)c2c1=O` [Compound 10, 3-acetyl-8-bromo-5-chloro-2-((4-chlorobenzyl)thio)quinolin-4(1H)-one], the IC50 reads like this: under setting [1], over 2000 nM; under setting [2], over 2000 nM; under setting [3], over 2000 nM; under setting [4], over 2000 nM; under setting [5], over 10000 nM; under setting [6], over 2000 nM. Besides, the IC50 by setting is: under setting [7], over 2000 nM; under setting [8], over 2000 nM; under setting [9], over 2000 nM.
With `CC(=O)c1c([S+]([O-])Cc2ccc(S(F)(F)(F)(F)F)cc2)[nH]c2c(F)ccc(F)c2c1=O` (stereo not drawn) [Compound 80, 3-acetyl-5,8-difluoro-2-((4-(pentafluoro--sulfanyl)benzyl)sulfinyl)quinolin-4(1H)-one], the IC50 is over 2000 nM under setting [1]; over 2000 nM under setting [2]; over 2000 nM under setting [3]; over 2000 nM under setting [4]; over 10000 nM under setting [5]; over 2000 nM under setting [6]. The IC50 reads like this: under setting [7], over 2000 nM; under setting [8], over 2000 nM; under setting [9], over 2000 nM.
As for `CC(=O)c1c([S+]([O-])Cc2cnc3[nH]ccc3c2)[nH]c2c(Br)ccc(Cl)c2c1=O` (stereo not drawn) [Compound 107, 2-(((1H-pyrrolo[2,3-b]pyridin-5-yl)methyl)sulfinyl)-3-acetyl-8-bromo-5-chloroquinolin-4(1H)-one], the IC50 under setting [10] was over 2000 nM; the IC50 under setting [11] was over 2000 nM; the IC50 under setting [12] is over 2000 nM; the 50% inhibitory concentration (IC50) under setting [13] was over 2000 nM; the IC50 under setting [14] was over 10000 nM; the IC50 under setting [15] is over 2000 nM. Moreover, the IC50 was over 2000 nM under setting [16], over 2000 nM under setting [17] and over 2000 nM under setting [18].
For the compound `COC(=O)c1ccc(C[S+]([O-])c2[nH]c3c(Cl)ccc(Cl)c3c(=O)c2C(C)=O)cc1` (stereo not drawn) [Compound 91, methyl 4-(((3-acetyl-5,8-dichloro-4-oxo-1,4-dihydroquinolin-2-yl)sulfinyl)methyl)benzoate], the IC50 is 1820 nM under setting [10]; over 2000 nM under setting [11]; over 2000 nM under setting [12]; over 2000 nM under setting [13]; over 10000 nM under setting [14]; over 2000 nM under setting [15]. Further, the IC50 is, setting by setting: under setting [16], 1410 nM; under setting [17], over 2000 nM; under setting [18], over 2000 nM.
Regarding `CSc1c(C(C)=O)c(=O)c2c(Cl)ccc(Br)c2n1S(=O)(=O)c1ccc(Cl)cc1` [Compound 37, 3-acetyl-8-bromo-5-chloro-1-((4-chlorophenyl)sulfonyl)-2-(methylthio)quinolin-4(1H)-one], the IC50 reads like this: under setting [1], over 2000 nM; under setting [2], over 2000 nM; under setting [3], over 2000 nM; under setting [4], over 2000 nM; under setting [5], over 10000 nM; under setting [6], over 2000 nM. Also, the IC50 was over 2000 nM under setting [7], over 2000 nM under setting [8] and over 2000 nM under setting [9].
As to `CC(=O)c1c(SCc2ccc(F)c(Cl)c2)[nH]c2c(Br)ccc(Cl)c2c1=O` [Compound 30, 3-acetyl-8-bromo-5-chloro-2-((3-chloro-4-fluorobenzyl)thio)quinolin-4(1H)-one], the IC50 was over 2000 nM under setting [1]; over 2000 nM under setting [2]; over 2000 nM under setting [3]; over 2000 nM under setting [4]; over 10000 nM under setting [5]; over 2000 nM under setting [6]. Besides, the IC50 was over 2000 nM under setting [7], over 2000 nM under setting [8] and over 2000 nM under setting [9].
Turning to `CC(=O)c1c([S+](C)[O-])n(C(=O)c2ccc(Br)cc2)c2c(Br)ccc(Cl)c2c1=O` (stereo not drawn) [Compound 9, 3-acetyl-8-bromo-1-(4-bromobenzoyl)-5-chloro-2-(methylsulfinyl)quinolin-4(1H)-one], the IC50 reads like this: under setting [1], 870 nM; under setting [2], 1050 nM; under setting [3], 1750 nM; under setting [4], 1240 nM; under setting [5], over 10000 nM; under setting [6], over 2000 nM. Moreover, the IC50 runs as follows: under setting [7], 1280 nM; under setting [8], 1360 nM; under setting [9], 1930 nM.
As for `CC(=O)c1c([S+]([O-])Cc2ccccc2C#N)[nH]c2c(Br)ccc(Cl)c2c1=O` (stereo not drawn) [Compound 58, 2-(((3-acetyl-8-bromo-5-chloro-4-oxo-1,4-dihydroquinolin-2-yl)sulfinyl)methyl)benzonitrile], the IC50 was 770 nM under setting [1]; 1090 nM under setting [2]; 1350 nM under setting [3]; 1100 nM under setting [4]; over 10000 nM under setting [5]; 2020 nM under setting [6]. Also, the IC50 was 1220 nM under setting [7], 1160 nM under setting [8] and 1120 nM under setting [9].
Turning to `CC(=O)c1c([S+]([O-])Cc2ccccc2)n(C(=O)c2ccc(Br)cc2)c2c(Br)ccc(Cl)c2c1=O` (stereo not drawn) [Compound 20, 3-acetyl-2-(benzylsulfinyl)-8-bromo-1-(4-bromobenzoyl)-5-chloroquinolin-4(1H)-one], the half-maximal inhibitory concentration (IC50) is over 2000 nM under setting [1]; over 2000 nM under setting [2]; over 2000 nM under setting [3]; over 2000 nM under setting [4]; over 10000 nM under setting [5]; over 2000 nM under setting [6]. Also, the IC50 under setting [7] was over 2000 nM, the IC50 under setting [8] was over 2000 nM and the IC50 under setting [9] is over 2000 nM.
As to `CC(=O)c1c([S+]([O-])Cc2cc(C)on2)[nH]c2c(F)ccc(F)c2c1=O` (stereo not drawn) [Compound 82, 3-acetyl-5,8-difluoro-2-(((5-methylisoxazol-3-yl)methyl)sulfinyl)quinolin-4(1H)-one], the IC50 runs as follows: under setting [10], over 2000 nM; under setting [11], over 2000 nM; under setting [12], over 2000 nM; under setting [13], over 2000 nM; under setting [14], over 10000 nM; under setting [15], over 2000 nM. For the same compound, the IC50 runs as follows: under setting [16], over 2000 nM; under setting [17], over 2000 nM; under setting [18], over 2000 nM.
With `CC(C)C(=O)c1c([S+]([O-])Cc2ccc(SC(F)(F)F)cc2)[nH]c2c(F)ccc(F)c2c1=O` (stereo not drawn) [Compound 85, 5,8-difluoro-3-isobutyryl-2-((4-((trifluoromethyl)thio)benzyl)sulfinyl)quinolin-4(1H)-one], the IC50 by setting is: under setting [10], over 2000 nM; under setting [11], over 2000 nM; under setting [12], over 2000 nM; under setting [13], over 2000 nM; under setting [14], over 10000 nM; under setting [15], over 2000 nM. The IC50 is, setting by setting: under setting [16], over 2000 nM; under setting [17], over 2000 nM; under setting [18], over 2000 nM.

For the origin of these results see US11464770B2, “Anticancer pharmaceutical composition” (NATIONAL CANCER CENTER, priority 2016, dated 2022).
